Source: ChEMBL document CHEMBL1128937, “Coumarin-based prodrugs 2. Synthesis and bioreversibility studies of an esterase-sensitive cyclic prodrug of dadle, an opioid peptide” (Bioorg Med Chem Lett, 1996)

System: esterase
Test: Half-life time was determined for esterase-catalyzed hydrolysis of the phenol ester bond in porcine liver esterase
Format: ADME, Sus scrofa
Conditions: pig

Question: With CC(C)C[C@H]1NC(=O)Oc2ccccc2/C=C\C(=O)NC(=O)[C@H](Cc2ccc(O)cc2)NC(=O)[C@@H](C)NC(=O)CNC(=O)[C@H](Cc2ccccc2)NC1=O as the compound, how does the half-life read?
Answer: 12.7 h
